We go through 8 compounds from PubChem BioAssay (NCI).

What all share (experiment): NCI anticancer screen, dose series, 48 h
Test [1] deals with K-562 leukemia.
For test [2], the system named is KM12 colon.
The subject of test [3] is LOX IMVI melanoma.
The test system of test [4] is M14 melanoma.
For test [5], the system named is MDA-MB-231 breast.
For test [6], the system named is MOLT-4 leukemia.
Test [7] concerns NCI-H522 lung.
Test [8] has as its system SK-MEL-5 melanoma.
The test system of test [9] is SK-OV-3 ovarian.
For test [10], the system named is SNB-19 CNS.

“And” between values parts separate entries of the source, which are not always exact repeats. Equal entries are not always repeated.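 Following 48 hours of exposure in 96-well plates, responses at five concentrations were used to interpolate endpoints linearly. Here, GI50 denotes the concentration required for 50% inhibition of growth. At the TGI there is no net growth.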

Take `CC/C(=C(/c1ccc(/C=C/C(=O)O)cc1)c1ccc2[nH]ncc2c1)c1ccc(F)cc1Cl`: the GI50 was 12.1 µM in test [1]; 6.79 µM in [2]; 14.5 µM in test [3]; 7.84 µM in test [4]; 16.2 µM in [5]; 11.3 µM in [6]. Further, the GI50 in test [7] is 9.42 µM; in test [8], 8.35 µM; in [9] it was 16.7 µM; in [10] it was 12.9 µM. The TGI in test [1] was 41 µM; in test [2], 21.5 µM; in [3] it was 39.6 µM; in [4] it was 27.1 µM; in test [5], 34.6 µM; in test [6], 37.3 µM. The TGI in test [7] stood at 28.2 µM; in [8], 21.4 µM; in test [9], 30.8 µM; in test [10] it was 31.2 µM.

With `N=C(N)c1ccc(OCCCCCOc2ccc(C(=N)N)cc2)cc1`, the GI50 in test [1] was 2.8 µM; in test [2] it was 2.5 µM and 6.35 µM and 14.3 µM; in [3] it was 8.47 µM; in test [4], 5.63 µM; in test [5], 8.69 µM; in test [6], 23.3 µM and 12 µM and 28.3 µM. Also, the GI50 in test [7] was 1.66 µM; in [8] it was 1.02 µM and 2.29 µM and 10.1 µM; in test [10], 2.79 µM. The TGI is 32.7 µM and 15.4 µM and > 100 µM in [1]; 14.3 µM and 20.9 µM and 31 µM in test [2]; 28.8 µM and 37.8 µM and 36.4 µM in test [3]; 17.2 µM and 31.8 µM and 31.9 µM in test [4]; > 50 µM and 44.4 µM in test [5]; > 50 µM and 51.8 µM and > 100 µM in test [6]. In addition, the TGI is 9.58 µM and 21.3 µM in test [7]; 3.33 µM and 11.7 µM and 29.5 µM in test [8]; > 50 µM and 29.8 µM and 22.3 µM in test [9]; 24.5 µM and 54.6 µM and 32.3 µM in [10].

As to `CC1=NN(c2nc(N)nc(/C=C\c3ccccc3)n2)C(C)(C)C1`, the GI50 was 3.98 µM in [1]; 1.59 µM in [2]; 1.99 µM in test [3]; 9.76 µM in test [4]; 6.46 µM in test [5]; 13 µM in test [6]. Moreover, the GI50 was 3.14 µM in test [7], 16 µM in [8], 6.66 µM in [9] and 20.3 µM in [10]. The TGI in [1] worked out at 22.1 µM; in test [2] it was 10.5 µM; in test [3], 15 µM; in test [4], 23.7 µM; in test [5], 22.5 µM; in test [6] it was 40.7 µM. Besides, the TGI in test [7] stood at 13.5 µM; in [8], 32.3 µM; in test [9] it was 36.1 µM; in test [10] it was 42.9 µM.

Take `CC(C)C/C(=N\NC(=O)c1ccncc1)c1cc(Cl)ccc1O`: the GI50 is 0.516 µM in test [1]; 0.389 µM in test [2]; 0.178 µM in [3]; 0.627 µM in test [4]; 0.622 µM in test [5]; 0.29 µM in test [6]. Also, the GI50 in test [7] was 0.312 µM; in test [8] it was 0.562 µM; in test [9], 0.852 µM; in test [10], 1.66 µM. The TGI is over 100 µM in test [1]; 57.4 µM in test [2]; 13.3 µM in test [4]; over 46 µM in test [5]; 20.8 µM in test [6]; 16 µM in test [7]. Moreover, the TGI in test [8] is 2.53 µM; in test [9], 32.2 µM; in [10], over 100 µM.

For `CCN(CC)CCS(=O)(=O)CCNc1ccnc2cc(Cl)ccc12`, the GI50 in [1] is 0.96 µM; in [2], 2.41 µM; in [3], 0.982 µM; in test [4], 2.53 µM; in [5], 3.1 µM; in test [6], 1.34 µM. Besides, the GI50 is 0.758 µM in [7], 3.79 µM in test [8], 6.58 µM in [9] and 6.69 µM in test [10]. The TGI was over 49.8 µM in test [1]; over 24.3 µM in test [2]; 5.85 µM in test [3]; 9.33 µM in test [4]; over 100 µM in test [5]; 49 µM in test [6]. Moreover, the TGI in [7] is 2.11 µM; in test [8], 10.4 µM; in [9] it was 70.2 µM; in test [10], over 100 µM.

Regarding `CC1(C)N=C(N)N=C(N)N1c1ccc(OCCCCNC(=O)Nc2cccc(S(=O)(=O)F)c2)c(Cl)c1`, the GI50 was 0.351 µM in test [1]; 2.64 µM in [2]; 0.491 µM in test [3]; 3.96 µM in test [4]; 6.57 µM in [5]; 4.08 µM in test [6]. Moreover, the GI50 in test [7] was 1.83 µM; in test [8] it was 1.11 µM; in test [9], over 100 µM; in test [10] it was 2.91 µM. The TGI in test [1], in [2], in test [3], in test [4], in test [5] and in test [6] was over 100 µM throughout. Besides, the TGI is 69.7 µM in test [7], 23.7 µM in test [8], over 100 µM in test [9] and over 100 µM in [10].

For `Nc1n[nH]c2ccc([C@@H]3Nc4c(F)cc5[nH]ncc5c4[C@H]4C5CCC(C5)[C@@H]34)cc12` (stereo partly drawn), the GI50 was 0.0546 µM in [1]; 0.287 µM in [2]; 0.539 µM in test [3]; 0.206 µM in test [4]; 0.732 µM in test [5]; 0.439 µM in [6]. Besides, the GI50 in test [7] was 0.102 µM; in test [8], 0.6 µM; in test [9], 0.686 µM; in [10] it was 0.515 µM. Besides, the TGI is over 52.1 µM in [1]; 4.87 µM in test [2]; 23.9 µM in [3]; over 32.8 µM in [4]; over 47 µM in test [5]; over 45.5 µM in test [6]. Also, the TGI in test [7] is 2.17 µM; in test [8], 4.94 µM; in test [9], over 58.2 µM; in test [10], over 62.9 µM.

On to `CN1CC[C@]23c4c5ccc(O)c4OC2c2[nH]ncc2C[C@H]3[C@H]1C5` (stereo partly drawn), for which the TGI in test [1], in test [2], in test [3], in test [4], in test [5] and in test [6] was over 100 µM throughout. Further, the TGI in test [7], in test [8], in test [9] and in [10] was over 100 µM throughout.
